Measured values from patent publication US4842845A, “Radioactive metal chelates for dipyridoxyl phosphate” (Salutar, Inc., priority 1987, dated 1989).

Assay: Potentiometric titration of DPDP (pH 11.2 to 2.0), protonation sites
Assay type: physicochemical
Conditions: at a pH of 3 and above
Experimental: The compound DPDP was studied potentiometrically from pH 11.2 to 2.0. Data sets were collected on a custom-built automatic potentiometric titration apparatus composed of a METROHM 655 DOSIMAT automatic buret, a FISHER ACCUMET pH meter with a CORNING calomel combination electrode, a custom-blown water jacketed titration cell, a BRINKMAN LAUDA K-2/R constant temperature bath and a COMMODORE 64 computer. […] Data analysis was performed on an IBM-AT computer using the least squares program, BETA (Harris, W. et al, supra), and the data analysis program, HANDNBAR (Harris, W. et al, supra). […] All solutions were made from distilled, deionized water that was further purified on a MILLI-Q cartridge system, degassed, and then kept under an atmosphere of argon which had been scrubbed for CO2 and O2.

Q: Which “Protonation / charge state of the ligand (dissociation constants assigned to the protonation sites)” value does the source give for Cc1ncc(COP(=O)(O)O)c(CN(CCN(CC(=O)O)Cc2c(COP(=O)(O)O)cnc(C)c2O)CC(=O)O)c1O [DPDP, N,N'-bis-(pyridoxal-5-phosphate)-ethylenediamine-N,N'-diacetic acid] here?
A: anionic and possesses deprotonated metal binding sites
